Assay results reported in PubChem BioAssay AID226 (DTP/NCI, 2004).
Where “and” joins values, the source holds several entries; their conditions need not be identical. Equal entries are not always repeated. Toxic doses and inconclusive results are not listed.

Tested on: B6C3F1 mice, intracerebral ependymoblastoma, median survival T/C
Assay: NCI In Vivo Anticancer Drug Screen. Data for tumor model Ependymoblastoma (intracerebral) in B6C3F1 mice
Details: endpoint: median survival time, higher = longer survival
Protocol: The antitumor activity of compounds was measured in mice bearing transplantable tumors. Survival or tumor size were measured and the results are expressed as the measurement made in the treated group (T) divided by the measurement made in the vehicle treated control group (C). The tumor model used in this assay is Ependymoblastoma (intracerebral) in B6C3F1 mice

[1] = dose: 1.0 mg/kg/injection, schedule: Q01DX005 (ip), vehicle: saline
[2] = dose: 2.0 mg/kg/injection, schedule: Q01DX005 (ip), vehicle: saline with Tween-80
[3] = dose: 2.0 mg/kg/injection, schedule: Q01DX005 (ip), vehicle: saline
[4] = dose: 16.0 mg/kg/injection, schedule: Q01DX005 (ip), vehicle: Klucel (hydroxypropylcellulose) (HPC)
[5] = dose: 32.0 mg/kg/injection, schedule: Q01DX005 (ip), vehicle: Klucel (hydroxypropylcellulose) (HPC)
[6] = dose: 64.0 mg/kg/injection, schedule: Q01DX005 (ip), vehicle: Klucel (hydroxypropylcellulose) (HPC)

## COC1C(O)C(C)OC(OC2C(Oc3cccc4c(O)c5c(=O)oc6ccc(C)c7c(=O)oc(c34)c5c67)OC(C)C(O)C2O)C1O (stereo not drawn)
[1]
  T/C: 105 % of control
[2]
  T/C: 94 % of control and 105 % of control
[3]
  T/C: 98 % of control
dose: 4.0 mg/kg/injection, schedule: Q01DX005 (ip), vehicle: saline with Tween-80
  T/C: 99 % of control and 102 % of control
dose: 4.0 mg/kg/injection, schedule: Q01DX005 (ip), vehicle: saline
  T/C: 96 % of control
dose: 8.0 mg/kg/injection, schedule: Q01DX005 (ip), vehicle: saline with Tween-80
  T/C: 102 % of control and 104 % of control
dose: 8.0 mg/kg/injection, schedule: Q01DX005 (ip), vehicle: saline
  T/C: 101 % of control
dose: 16.0 mg/kg/injection, schedule: Q01DX005 (ip), vehicle: saline with Tween-80
  T/C: 100 % of control and 105 % of control
dose: 16.0 mg/kg/injection, schedule: Q01DX005 (ip), vehicle: saline
  T/C: 93 % of control
dose: 32.0 mg/kg/injection, schedule: Q01DX005 (ip), vehicle: saline with Tween-80
  T/C: 106 % of control and 89 % of control
dose: 32.0 mg/kg/injection, schedule: Q01DX005 (ip), vehicle: saline
  T/C: 98 % of control
dose: 64.0 mg/kg/injection, schedule: Q01DX005 (ip), vehicle: saline with Tween-80
  T/C: 102 % of control and 108 % of control
dose: 64.0 mg/kg/injection, schedule: Q01DX005 (ip), vehicle: saline
  T/C: 103 % of control
dose: 128.0 mg/kg/injection, schedule: Q01DX005 (ip), vehicle: saline with Tween-80
  T/C: 106 % of control and 111 % of control
dose: 128.0 mg/kg/injection, schedule: Q01DX005 (ip), vehicle: saline
  T/C: 98 % of control

## C[C@]1(O)CC[C@H]2[C@@H]3CCC4=CC(=O)CC[C@]4(C)[C@@]3(F)[C@@H](O)C[C@@]21C
dose: 8.0 mg/kg/injection, schedule: Q01DX005 (ip), vehicle: Klucel (hydroxypropylcellulose) (HPC)
  T/C: 91 % of control and 102 % of control
[4]
  T/C: 96 % of control and 102 % of control
[5]
  T/C: 93 % of control
[6]
  T/C: 97 % of control and 98 % of control
dose: 128.0 mg/kg/injection, schedule: Q01DX005 (ip), vehicle: Klucel (hydroxypropylcellulose) (HPC)
  T/C: 92 % of control and 104 % of control
dose: 256.0 mg/kg/injection, schedule: Q01DX005 (ip), vehicle: Klucel (hydroxypropylcellulose) (HPC)
  T/C: 93 % of control and 97 % of control
dose: 512.0 mg/kg/injection, schedule: Q01DX005 (ip), vehicle: Klucel (hydroxypropylcellulose) (HPC)
  T/C: 91 % of control

## CC1(C)OC2C(COC(=O)c3ccc([N+](=O)[O-])cc3)OC(NC(=O)N(CCCl)N=O)C2O1 (stereo not drawn)
dose: 5.0 mg/kg/injection, schedule: Q01DX009 (ip), vehicle: saline
  T/C: 100 % of control
dose: 10.0 mg/kg/injection, schedule: Q01DX009 (ip), vehicle: saline
  T/C: 207 % of control
dose: 12.5 mg/kg/injection, schedule: Q01DX009 (ip), vehicle: saline with Tween-80
  T/C: 195 % of control
dose: 25.0 mg/kg/injection, schedule: Q01DX009 (ip), vehicle: saline with Tween-80
  T/C: 248 % of control

## CNNCc1ccc(C(=O)NC(C)C)cc1
[5]
  T/C: 156 % of control
[6]
  T/C: 155 % of control

## Cn1cnc([N+](=O)[O-])c1Sc1nc(N)nc2c1ncn2C1OC(CO)C(O)C1O (stereo not drawn)
dose: 6.25 mg/kg/injection, schedule: Q01DX005 (ip), vehicle: suspension in saline
  T/C: 109 % of control
dose: 12.5 mg/kg/injection, schedule: Q01DX005 (ip), vehicle: suspension in saline
  T/C: 115 % of control
dose: 25.0 mg/kg/injection, schedule: Q01DX005 (ip), vehicle: suspension in saline
  T/C: 107 % of control

## CN(N=O)C(N)=O
dose: 0.5 mg/kg/injection, schedule: Q01DX005 (ip), vehicle: saline + alcohol
  T/C: 98 % of control and 101 % of control and 107 % of control
dose: 1.56 mg/kg/injection, schedule: Q01DX009 (ip), vehicle: saline
  T/C: 161 % of control
dose: 2.0 mg/kg/injection, schedule: Q#A X002 (ip), vehicle: saline + alcohol
  T/C: 115 % of control
dose: 3.12 mg/kg/injection, schedule: Q01DX009 (ip), vehicle: saline
  T/C: 161 % of control
dose: 4.0 mg/kg/injection, schedule: Q01DX001 (ip), vehicle: saline + alcohol
  T/C: 118 % of control and 120 % of control
dose: 4.0 mg/kg/injection, schedule: Q01DX005 (oral), vehicle: saline + alcohol
  T/C: 150 % of control
dose: 4.0 mg/kg/injection, schedule: Q## X006 (ip), vehicle: saline + alcohol
  T/C: 156 % of control
dose: 4.0 mg/kg/injection, schedule: Q#A X002 (ip), vehicle: saline + alcohol
  T/C: 113 % of control
dose: 6.25 mg/kg/injection, schedule: Q01DX009 (ip), vehicle: saline
  T/C: 164 % of control
dose: 8.0 mg/kg/injection, schedule: Q01DX001 (ip), vehicle: saline + alcohol
  T/C: 121 % of control
dose: 8.0 mg/kg/injection, schedule: Q## X004 (ip), vehicle: saline + alcohol
  T/C: 150 % of control
dose: 8.0 mg/kg/injection, schedule: Q## X006 (ip), vehicle: saline + alcohol
  T/C: 156 % of control
dose: 10.0 mg/kg/injection, schedule: Q01DX001 (ip), vehicle: saline + alcohol
  T/C: 157 % of control
dose: 16.0 mg/kg/injection, schedule: Q01DX001 (oral), vehicle: saline + alcohol
  T/C: 123 % of control
[4]
  T/C: 118 % of control
dose: 16.0 mg/kg/injection, schedule: Q01DX005 (oral), vehicle: saline + alcohol
  T/C: 150 % of control
dose: 16.0 mg/kg/injection, schedule: Q## X006 (ip), vehicle: saline + alcohol
  T/C: 162 % of control
dose: 20.0 mg/kg/injection, schedule: Q01DX001 (ip), vehicle: saline + alcohol
  T/C: 157 % of control
dose: 32.0 mg/kg/injection, schedule: Q01DX001 (ip), vehicle: saline + alcohol
  T/C: 116 % of control
dose: 32.0 mg/kg/injection, schedule: Q01DX001 (oral), vehicle: saline + alcohol
  T/C: 118 % of control
dose: 32.0 mg/kg/injection, schedule: Q01DX005 (oral), vehicle: saline + alcohol
  T/C: 94 % of control
dose: 32.0 mg/kg/injection, schedule: Q## X004 (ip), vehicle: saline + alcohol
  T/C: 178 % of control
dose: 40.0 mg/kg/injection, schedule: Q01DX001 (ip), vehicle: saline + alcohol
  T/C: 161 % of control
dose: 40.0 mg/kg/injection, schedule: Q01DX001 (ip), vehicle: saline
  T/C: 122 % of control
dose: 64.0 mg/kg/injection, schedule: Q01DX001 (oral), vehicle: saline + alcohol
  T/C: 111 % of control
dose: 80.0 mg/kg/injection, schedule: Q01DX001 (ip), vehicle: saline + alcohol
  T/C: 183 % of control
dose: 128.0 mg/kg/injection, schedule: Q01DX001 (oral), vehicle: saline + alcohol
  T/C: 107 % of control and 121 % of control
dose: 256.0 mg/kg/injection, schedule: Q01DX001 (oral), vehicle: saline + alcohol
  T/C: 112 % of control

## Nc1nc(=S)c2ncn(C3OC(COC(=O)c4ccccc4)C(OC(=O)c4ccccc4)C3OC(=O)c3ccccc3)c2[nH]1 (stereo not drawn)
dose: 12.5 mg/kg/injection, schedule: Q01DX005 (ip), vehicle: saline with Tween-80
  T/C: 100 % of control
dose: 25.0 mg/kg/injection, schedule: Q01DX005 (ip), vehicle: saline with Tween-80
  T/C: 100 % of control
dose: 50.0 mg/kg/injection, schedule: Q01DX005 (ip), vehicle: saline with Tween-80
  T/C: 105 % of control

## Cc1cc2nc3ccc(N)cc3oc-2cc1=[N+](C)C
dose: 6.25 mg/kg/injection, schedule: Q01DX005 (ip), vehicle: saline
  T/C: 106 % of control
dose: 12.5 mg/kg/injection, schedule: Q01DX005 (ip), vehicle: saline
  T/C: 105 % of control
dose: 25.0 mg/kg/injection, schedule: Q01DX005 (ip), vehicle: saline
  T/C: 102 % of control
dose: 50.0 mg/kg/injection, schedule: Q01DX005 (ip), vehicle: saline
  T/C: 91 % of control

## N[C@@H](Cc1ccc(N(CCCl)CCCl)cc1)C(=O)O
dose: 0.5 mg/kg/injection, schedule: Q01DX001 (ip), vehicle: saline
  T/C: 102 % of control
dose: 0.5 mg/kg/injection, schedule: Q01DX005 (ip), vehicle: saline
  T/C: 93 % of control
dose: 1.0 mg/kg/injection, schedule: Q01DX001 (ip), vehicle: saline
  T/C: 98 % of control and 102 % of control and 105 % of control
[1]
  T/C: 107 % of control
dose: 2.0 mg/kg/injection, schedule: Q01DX001 (ip), vehicle: saline
  T/C: 102 % of control and 104 % of control and 110 % of control
[3]
  T/C: 109 % of control
dose: 4.0 mg/kg/injection, schedule: Q01DX001 (ip), vehicle: saline
  T/C: 96 % of control and 103 % of control and 110 % of control
dose: 8.0 mg/kg/injection, schedule: Q01DX001 (ip), vehicle: saline
  T/C: 103 % of control and 113 % of control and 117 % of control

## O=C1c2c(O)ccc(O)c2C(=O)c2c(NCCNCCO)ccc(NCCNCCO)c21
dose: 0.25 mg/kg/injection, schedule: Q01DX005 (ip), vehicle: saline with Tween-80
  T/C: 103 % of control
dose: 0.5 mg/kg/injection, schedule: Q01DX005 (ip), vehicle: saline with Tween-80
  T/C: 92 % of control and 98 % of control
dose: 1.0 mg/kg/injection, schedule: Q01DX005 (ip), vehicle: saline with Tween-80
  T/C: 103 % of control and 104 % of control
[2]
  T/C: 91 % of control and 103 % of control
